# Tests used:
# [1] = test system: adult subjects with schizophrenia; assay: PANSS positive subscale score, Clinical Study One; assay type: in vivo, human; conditions: ITT; for PANSS Positive Subscale Score, Trt Effect (bifeprunox—placebo): ANCOVA
# Method: There were five treatment groups in this study. […] Study medication was administered once daily. After Baseline measurements were performed, the titration phase was begun. Bifeprunox treated subjects were titrated up to 5 mg, 10 mg or 20 mg according to a standardized titration schedule (Day 1: 0.125 mg, Day 2: 0.25 mg, Day 3: 0.5 mg, Day 4: 1.0 mg, Day 5: 2.0 mg, Day 6: 5.0 mg, Day 7: 10.0 mg, Day 8: 20 mg). When the assigned dose was reached, subjects were maintained at that dose for the remainder of the six-week treatment period.
# The change in the Positive and Negative Symptom Scale (PANSS) total score, from baseline to endpoint, was the primary outcome measure. Secondary efficacy measures included: PANSS positive, PANSS negative, PANSS general psychopathology (GPP) score, PANSS-derived Brief Psychiatric Rating Scale (BPRS) score, Clinical Global Impressions-Severity of Illness (CGI-S), CGI-Improvement (CGI-I) scores, and responder rates. Safety and tolerability evaluations included extrapyramidal symptoms (EPS), weight gain, lipid profile, and serum prolactin.
# [2] = test system: adult subjects with schizophrenia; assay: Adverse events (TEAE, SAE, discontinuation, EPS-related TEAE, anticholinergic use), Clinical Study One; assay type: in vivo, human
# Method: METHODOLOGY: This was a randomized, double-blind, fixed-dose, placebo-controlled, risperidone-referenced, parallel group, multi-center study in adult subjects with schizophrenia. There were five treatment groups in this study. […] Study medication was administered once daily. After Baseline measurements were performed, the titration phase was begun. Bifeprunox treated subjects were titrated up to 5 mg, 10 mg or 20 mg according to a standardized titration schedule (Day 1: 0.125 mg, Day 2: 0.25 mg, Day 3: 0.5 mg, Day 4: 1.0 mg, Day 5: 2.0 mg, Day 6: 5.0 mg, Day 7: 10.0 mg, Day 8: 20 mg).
# [3] = Bifeprunox 10 mg, Endpoint LOCF
# [4] = Bifeprunox 20 mg, Endpoint LOCF
smiles,measurement,setting,value
"O=c1[nH]c2cccc(N3CCN(Cc4cccc(-c5ccccc5)c4)CC3)c2o1 [Bifeprunox, 7-[4-([1,1′-biphenyl]-3-ylmethyl)-1-piperazinyl]-2(3H)-benzoxazolone]","Change from Baseline in PANSS Positive Subscale Score, Mean (S.D.)","[1]; Bifeprunox 5 mg, Endpoint LOCF",−3.2 (5.2)
same,"Change from Baseline in PANSS Positive Subscale Score, Median","[1]; Bifeprunox 5 mg, Endpoint LOCF",−3
same,"PANSS Positive Subscale Score, Trt Effect (bifeprunox—placebo)","[1]; Bifeprunox 5 mg, Endpoint LOCF",−1.1
same,"Change from Baseline in PANSS Positive Subscale Score, Mean (S.D.)","[1]; Bifeprunox 5 mg, Week 1, LOCF",−1.1 (3.4)
same,"Change from Baseline in PANSS Positive Subscale Score, Median","[1]; Bifeprunox 5 mg, Week 1, LOCF",−1
same,"Change from Baseline in PANSS Positive Subscale Score, Mean (S.D.)","[1]; Bifeprunox 5 mg, Week 2, LOCF",−2.1 (4.0)
same,"Change from Baseline in PANSS Positive Subscale Score, Median","[1]; Bifeprunox 5 mg, Week 2, LOCF",−2
same,"Change from Baseline in PANSS Positive Subscale Score, Mean (S.D.)","[1]; Bifeprunox 5 mg, Week 3, LOCF",−2.6 (4.7)
same,"Change from Baseline in PANSS Positive Subscale Score, Median","[1]; Bifeprunox 5 mg, Week 3, LOCF",−3
same,"Change from Baseline in PANSS Positive Subscale Score, Mean (S.D.)","[1]; Bifeprunox 5 mg, Week 4, LOCF",−3.0 (5.0)
same,"Change from Baseline in PANSS Positive Subscale Score, Median","[1]; Bifeprunox 5 mg, Week 4, LOCF",−4
same,"Change from Baseline in PANSS Positive Subscale Score, Mean (S.D.)",[1]; [3],−1.4 (6.1)
same,"Change from Baseline in PANSS Positive Subscale Score, Median",[1]; [3],−1
same,"PANSS Positive Subscale Score, Trt Effect (bifeprunox—placebo)",[1]; [3],0.7
same,"Change from Baseline in PANSS Positive Subscale Score, Mean (S.D.)","[1]; Bifeprunox 10 mg, Week 1, LOCF",−0.6 (3.9)
same,"Change from Baseline in PANSS Positive Subscale Score, Median","[1]; Bifeprunox 10 mg, Week 1, LOCF",−1
same,"Change from Baseline in PANSS Positive Subscale Score, Mean (S.D.)","[1]; Bifeprunox 10 mg, Week 2, LOCF",−1.2 (4.7)
same,"Change from Baseline in PANSS Positive Subscale Score, Median","[1]; Bifeprunox 10 mg, Week 2, LOCF",−1
same,"Change from Baseline in PANSS Positive Subscale Score, Mean (S.D.)","[1]; Bifeprunox 10 mg, Week 3, LOCF",−1.1 (5.5)
same,"Change from Baseline in PANSS Positive Subscale Score, Median","[1]; Bifeprunox 10 mg, Week 3, LOCF",−1
same,"Change from Baseline in PANSS Positive Subscale Score, Mean (S.D.)","[1]; Bifeprunox 10 mg, Week 4, LOCF",−1.1 (5.6)
same,"Change from Baseline in PANSS Positive Subscale Score, Median","[1]; Bifeprunox 10 mg, Week 4, LOCF",−1
same,"Change from Baseline in PANSS Positive Subscale Score, Mean (S.D.)",[1]; [4],−3.5 (5.1)
same,"Change from Baseline in PANSS Positive Subscale Score, Median",[1]; [4],−3
same,"PANSS Positive Subscale Score, Trt Effect (bifeprunox—placebo)",[1]; [4],−1.5
same,"Change from Baseline in PANSS Positive Subscale Score, Mean (S.D.)","[1]; Bifeprunox 20 mg, Week 1, LOCF",−1.7 (3.5)
same,"Change from Baseline in PANSS Positive Subscale Score, Median","[1]; Bifeprunox 20 mg, Week 1, LOCF",−1
same,"Change from Baseline in PANSS Positive Subscale Score, Mean (S.D.)","[1]; Bifeprunox 20 mg, Week 2, LOCF",−2.7 (4.3)
same,"Change from Baseline in PANSS Positive Subscale Score, Median","[1]; Bifeprunox 20 mg, Week 2, LOCF",−3
same,"Change from Baseline in PANSS Positive Subscale Score, Mean (S.D.)","[1]; Bifeprunox 20 mg, Week 3, LOCF",−3.3 (4.4)
same,"Change from Baseline in PANSS Positive Subscale Score, Median","[1]; Bifeprunox 20 mg, Week 3, LOCF",−3
same,"Change from Baseline in PANSS Positive Subscale Score, Mean (S.D.)","[1]; Bifeprunox 20 mg, Week 4, LOCF",−3.5 (4.8)
same,"Change from Baseline in PANSS Positive Subscale Score, Median","[1]; Bifeprunox 20 mg, Week 4, LOCF",−3
same,"TEAE Akathisia, %","[2]; 5 mg, Safety Population",(<1%)
same,"TEAE Benign Skin Neoplasm Nos, %","[2]; 5 mg, Safety Population",(<1%)
same,"TEAE Muscle Stiffness, %","[2]; 5 mg, Safety Population",(<1%)
same,"TEAE Muscle Tightness, %","[2]; 5 mg, Safety Population",(<1%)
same,"TEAE Muscle Twitching, %","[2]; 5 mg, Safety Population",(2%)
same,"TEAE NEOPLASMS BENIGN, MALIGNANT AND UNSPECIFIED (INCL CYSTS AND POLYPS), %","[2]; 5 mg, Safety Population",(2%)
same,"TEAE NERVOUS SYSTEM DISORDERS, %","[2]; 5 mg, Safety Population",(48%)
same,"TEAE Neck Pain, %","[2]; 5 mg, Safety Population",(<1%)
same,"TEAE Pain in Jaw, %","[2]; 5 mg, Safety Population",(<1%)
same,"TEAE Pain in Limb, %","[2]; 5 mg, Safety Population",(<1%)
same,"TEAE Skin Papilloma, %","[2]; 5 mg, Safety Population",(<1%)
same,"TEAE Akathisia, %","[2]; 10 mg, Safety Population",(2%)
same,"TEAE Muscle Stiffness, %","[2]; 10 mg, Safety Population",(<1%)
same,"TEAE Muscle Twitching, %","[2]; 10 mg, Safety Population",(<1%)
same,"TEAE Musculoskeletal Discomfort, %","[2]; 10 mg, Safety Population",(<1%)
same,"TEAE Myalgia, %","[2]; 10 mg, Safety Population",(<1%)
same,"TEAE NERVOUS SYSTEM DISORDERS, %","[2]; 10 mg, Safety Population",(50%)
same,"TEAE Neck Pain, %","[2]; 10 mg, Safety Population",(3%)
same,"TEAE Pain in Jaw, %","[2]; 10 mg, Safety Population",(<1%)
same,"TEAE Pain in Limb, %","[2]; 10 mg, Safety Population",(2%)
same,"TEAE Akathisia, %","[2]; 20 mg, Safety Population",(3%)
same,"TEAE Muscle Spasms, %","[2]; 20 mg, Safety Population",(2%)
same,"TEAE Muscle Twitching, %","[2]; 20 mg, Safety Population",(<1%)
same,"TEAE Myalgia, %","[2]; 20 mg, Safety Population",(<1%)
same,"TEAE NERVOUS SYSTEM DISORDERS, %","[2]; 20 mg, Safety Population",(43%)
same,"TEAE Neck Pain, %","[2]; 20 mg, Safety Population",(2%)
same,"TEAE Pain in Limb, %","[2]; 20 mg, Safety Population",(3%)
same,"TEAE Sensation of Heaviness, %","[2]; 20 mg, Safety Population",(<1%)
same,"Acute Psychosis, %",[2]; BX 5 mg,(<1%)
same,"Aggression, %",[2]; BX 5 mg,(<1%)
same,"Agitation Aggravated, %",[2]; BX 5 mg,(4%)
same,"Agitation, %",[2]; BX 5 mg,(11%)
same,"Anxiety Aggravated, %",[2]; BX 5 mg,(3%)
same,"Anxiety, %",[2]; BX 5 mg,(5%)
same,"Confusion, %",[2]; BX 5 mg,(<1%)
same,"DIZZINESS, %",[2]; BX 5 mg,(14%)
same,"DYSKINESIA, %",[2]; BX 5 mg,(<1%)
same,"EXTRAPYRAMIDAL DISORDER, %",[2]; BX 5 mg,(1%)
same,"Gait Abnormal Nos, %",[2]; BX 5 mg,(<1%)
same,"Headache Nos, %",[2]; BX 5 mg,(30%)
same,"PSYCHIATRIC DISORDERS, %",[2]; BX 5 mg,(41%)
same,"Parkinsonian Rest Tremor, %",[2]; BX 5 mg,(<1%)
same,"SEDATION, %",[2]; BX 5 mg,(5%)
same,"SOMNOLENCE, %",[2]; BX 5 mg,(3%)
same,"Syncope, %",[2]; BX 5 mg,(<1%)
same,"TREMOR, %",[2]; BX 5 mg,(3%)
same,"Trismus, %",[2]; BX 5 mg,(<1%)
same,"Agitation Aggravated, %",[2]; BX 10 mg,(4%)
same,"Agitation, %",[2]; BX 10 mg,(9%)
same,"Anxiety Aggravated, %",[2]; BX 10 mg,(3%)
same,"Anxiety, %",[2]; BX 10 mg,(10%)
same,"DIZZINESS, %",[2]; BX 10 mg,(10%)
same,"DYSKINESIA, %",[2]; BX 10 mg,(<1%)
same,"Gait Abnormal Nos, %",[2]; BX 10 mg,(2%)
same,"Headache Nos, %",[2]; BX 10 mg,(35%)
